In the NIST ThermoML archive (doi:10.1021/je7004038) one finds Normal melting temperature data, which are given here for one compound.

Numbers after ± are expanded uncertainties.

For this data set the following is noted: Crystal; visual observation.

Turning to `O=[N+]([O-])/N=C1\NCCN1Cc1ccc(Cl)nc1` [imidacloprid], the Normal melting temperature was 144.00 ± 0.68 °C.
